From patent US20060069132A1, “Azolecarboxamide herbicides” (priority 2004, published 2006)

Columns and labels:
velvetleaf [1] = assay: Test B pre-/postemergence herbicide test; type: in vivo, Abutilon theophrasti; settings: for Velvetleaf plant response rating: postemergence
Procedure, shortened: (§1)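 Seeds were planted and treated preemergence with compounds formulated in a non-phytotoxic solvent mixture containing surfactant, while plants at the 1- to 4-leaf stage (2 to 18 cm) received postemergence sprays. Flooded paddy plants were grown to the 2-leaf stage. After 13 to 15 days in a greenhouse, injury was visually rated 0–100 against untreated controls.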

[2] = test system: small flower umbrella sedge; assay: Test B flooded paddy test; type: in vivo, Cyperus difformis; settings: 1000 g ai/ha, scale 0 to 100 (0 no effect, 100 complete control)
Procedure, shortened: (§2)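 Visual ratings, 0 (no effect) to 100 (complete control), made versus controls after 13–15 d greenhouse. Paddy plants treated at 2-leaf stage; postemergence plants at 1- to 4-leaf stage, 2–18 cm tall.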

giant foxtail [3] = assay: Test B pre-/postemergence herbicide test; type: in vivo, Setaria faberi; settings: for Foxtail, Giant plant response rating: postemergence
Procedure, shortened: as §1

ducksalad = assay: Test B flooded paddy test; type: in vivo, Heteranthera limosa; settings: 1000 g ai/ha, scale 0 to 100 (0 no effect, 100 complete control)
Procedure, shortened: as §2

rice [4] = assay: Test B pre-/postemergence herbicide test; type: in vivo, Oryza sativa; settings: 0 = no effect, 100 = complete control, preemergence
Procedure, shortened: as §1

large crabgrass [5] = assay: Test A pre-/postemergence herbicide test; type: in vivo, Digitaria sanguinalis
Procedure, shortened: (§3)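 Both application timings were run together: directed soil spray over freshly planted seeds in sandy loam, and runoff spray onto 2–10 cm seedlings. Evaluation after ~10 days in greenhouse used a 0–100 visual scale versus untreated controls.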

morningglory [6] = assay: Test A pre-/postemergence herbicide test; type: in vivo, Ipomoea spp.
Procedure, shortened: as §3

rice [7] = assay: Test B flooded paddy test; type: in vivo, Oryza sativa; settings: 1000 g ai/ha, scale 0 to 100 (0 no effect, 100 complete control)
Procedure, shortened: as §2

giant foxtail [8] = assay: Test A pre-/postemergence herbicide test; type: in vivo, Setaria faberi
Procedure, shortened: as §3

cocklebur = assay: Test B pre-/postemergence herbicide test; type: in vivo, Xanthium strumarium; settings: for Cocklebur plant response rating: postemergence
Procedure, shortened: (§4)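 Visual rating, 0 (no effect) to 100 (complete control), versus untreated controls after 13–15 d in greenhouse. Pre- and postemergence applications (postemergence plants 2–18 cm, 1–4 leaves); flooded paddy arm at 2-leaf stage. Compounds in non-phytotoxic solvent plus surfactant.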

redroot pigweed = assay: Test A pre-/postemergence herbicide test; type: in vivo, Amaranthus retroflexus
Procedure, shortened: as §3

wheat = assay: Test B postemergence herbicide test; type: in vivo, Triticum aestivum; parameters: key to Wheat plant response rating: 0 = no effect, 100 = complete control; settings: postemergence
Procedure, shortened: (§5)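 Plants grow to 1- to 4-leaf stage (2–18 cm) for postemergence spraying, or to 2-leaf stage for the paddy test. Formulated compound is applied. Greenhouse holding lasts 13–15 days. Response is scored visually relative to controls, 0 no effect to 100 complete control; a dash means no result.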

barnyardgrass [9] = assay: Test B pre-/postemergence herbicide test; type: in vivo, Echinochloa crus-galli; settings: for Barnyardgrass plant response rating: postemergence
Procedure, shortened: as §4

barnyardgrass [10] = assay: Test A pre-/postemergence herbicide test; type: in vivo, Echinochloa crus-galli
Procedure, shortened: as §3

pigweed = assay: Test B pre-/postemergence herbicide test; type: in vivo, Amaranthus retroflexus; settings: for Pigweed plant response rating: postemergence
Procedure, shortened: as §1

lambsquarters = assay: Test B pre-/postemergence herbicide test; type: in vivo, Chenopodium album; settings: for Lambsquarters plant response rating: postemergence
Procedure, shortened: as §1

corn = assay: Test B pre-/postemergence herbicide test; type: in vivo, Zea mays; settings: for Corn plant response rating: postemergence
Procedure, shortened: as §1

Surinam grass = assay: Test B pre-/postemergence herbicide test; type: in vivo, Urochloa decumbens; settings: for Surinam Grass plant response rating: postemergence
Procedure, shortened: as §1

blackgrass = assay: Test B postemergence herbicide test; type: in vivo, Alopecurus myosuroides; settings: postemergence
Procedure, shortened: as §2

velvetleaf [11] = assay: Test A pre-/postemergence herbicide test; type: in vivo, Abutilon theophrasti
Procedure, shortened: as §3

large crabgrass [12] = assay: Test B pre-/postemergence herbicide test; type: in vivo, Digitaria sanguinalis; settings: for Crabgrass, Large plant response rating: postemergence
Procedure, shortened: as §1

barnyardgrass [13] = assay: Test B flooded paddy test; type: in vivo, Echinochloa crus-galli; settings: 1000 g ai/ha, scale 0 to 100 (0 no effect, 100 complete control)
Procedure, shortened: as §2

wild oat = assay: Test B postemergence herbicide test; type: in vivo, Avena fatua; settings: postemergence
Procedure, shortened: as §5

morningglory [14] = assay: Test B pre-/postemergence herbicide test; type: in vivo, Ipomoea coccinea; settings: for Morningglory plant response rating: postemergence
Procedure, shortened: as §4

[15] = 125 g ai/ha, 0 = no effect, 100 = complete control, preemergence
[16] = 500 g ai/ha, visual rating, 0 = no effect, 100 = complete control, preemergence
[17] = 125 g ai/ha, visual rating, scale 0 (no effect) to 100 (complete control)
[18] = 500 g ai/ha, scale 0 to 100, 0 is no effect, 100 is complete control
[19] = Postemergence, 500 g ai/ha, 0 to 100 scale, 0 no effect, 100 complete control
[20] = Postemergence, 2000 g ai/ha, 0 to 100 scale, 0 no effect, 100 complete control
[21] = Preemergence, 2000 g ai/ha, visual rating, 0 to 100 scale (0 no effect, 100 complete control)
[22] = preemergence, 500 g ai/ha, visual injury, 0 to 100 scale (0 no effect, 100 complete control)

With CCn1nc(C(C)(C)C)cc1C(=O)Nc1cc(C(N)=O)ccc1F [Compound 271] the “Velvetleaf plant response rating (0 to 100 scale)” value (velvetleaf [1]; [15]) was 0, the “Plant response rating, Velvetleaf” value (velvetleaf [1]; [16]) was 0 and the “Velvetleaf plant response rating” value (velvetleaf [1]; [17]) was 0. For the same compound, the “Velvetleaf plant response rating” value (velvetleaf [1]; [18]) was 0, the “Sedge, Umbrella plant response rating” value [2] was 40 and the “Foxtail, Giant plant response rating (0 to 100 scale)” value (giant foxtail [3]; [15]) was 0. The “Plant response rating, Foxtail, Giant” value (giant foxtail [3]; [16]) was 0, the “Foxtail, Giant plant response rating” value (giant foxtail [3]; [17]) was 0 and the “Foxtail, Giant plant response rating” value (giant foxtail [3]; [18]) was 0. For the same compound, the “Ducksalad plant response rating” value (ducksalad) was 40, the “Rice plant response rating (0 to 100 scale)” value (rice [4]; 125 g ai/ha) was 0 and the “Plant response rating, Rice” value (rice [4]; 500 g ai/ha, visual rating) was 0. The “Crabgrass, Large plant response rating” value (large crabgrass [5]; [19]) was 10, the “Plant response rating, Crabgrass, Large” value (large crabgrass [5]; [20]) was 10 and the “Crabgrass, Large plant response rating” value (large crabgrass [5]; [21]) was 15. The “Crabgrass, Large plant response rating” value (large crabgrass [5]; [22]) was 0, the “Morningglory plant response rating” value (morningglory [6]; [19]) was 10 and the “Plant response rating, Morningglory” value (morningglory [6]; [20]) was 30. The “Morningglory plant response rating” value (morningglory [6]; [21]) was 0, the “Morningglory plant response rating” value (morningglory [6]; [22]) was 0 and the “Rice plant response rating” value (rice [7]) was 20. For the same compound, the “Foxtail, Giant plant response rating” value (giant foxtail [8]; [19]) was 10, the “Plant response rating, Foxtail, Giant” value (giant foxtail [8]; [20]) was 20 and the “Foxtail, Giant plant response rating” value (giant foxtail [8]; [21]) was 70. For the same compound, the “Foxtail, Giant plant response rating” value (giant foxtail [8]; [22]) was 0, the “Cocklebur plant response rating (0 to 100 scale)” value (cocklebur; [15]) was 0 and the “Plant response rating, Cocklebur” value (cocklebur; [16]) was 0. For the same compound, the “Cocklebur plant response rating” value (cocklebur; [17]) was 0, the “Cocklebur plant response rating” value (cocklebur; [18]) was 0 and the “Pigweed plant response rating” value (redroot pigweed; [19]) was 45. For the same compound, the “Plant response rating, Pigweed” value (redroot pigweed; [20]) was 90, the “Pigweed plant response rating” value (redroot pigweed; [21]) was 60 and the “Pigweed plant response rating” value (redroot pigweed; [22]) was 60. For the same compound, the “Wheat plant response rating” value (wheat; [17]) was 30, the “Wheat plant response rating” value (wheat; [18]) was 30 and the “Barnyardgrass plant response rating (0 to 100 scale)” value (barnyardgrass [9]; [15]) was 0. For the same compound, the “Plant response rating, Barnyardgrass” value (barnyardgrass [9]; [16]) was 0, the “Barnyardgrass plant response rating” value (barnyardgrass [9]; [17]) was 0 and the “Barnyardgrass plant response rating” value (barnyardgrass [9]; [18]) was 0. The “Barnyardgrass plant response rating” value (barnyardgrass [10]; [19]) was 10, the “Plant response rating, Barnyardgrass” value (barnyardgrass [10]; [20]) was 30 and the “Barnyardgrass plant response rating” value (barnyardgrass [10]; [21]) was 75. The “Barnyardgrass plant response rating” value (barnyardgrass [10]; [22]) was 5, the “Pigweed plant response rating (0 to 100 scale)” value (pigweed; [15]) was 0 and the “Plant response rating, Pigweed” value (pigweed; [16]) was 20. The “Pigweed plant response rating” value (pigweed; [17]) was 50, the “Pigweed plant response rating” value (pigweed; [18]) was 80 and the “Lambsquarters plant response rating (0 to 100 scale)” value (lambsquarters; [15]) was 0. For the same compound, the “Plant response rating, Lambsquarters” value (lambsquarters; [16]) was 60, the “Lambsquarters plant response rating” value (lambsquarters; [17]) was 10 and the “Lambsquarters plant response rating” value (lambsquarters; [18]) was 60. The “Corn plant response rating (0 to 100 scale)” value (corn; [15]) was 0, the “Plant response rating, Corn” value (corn; [16]) was 10 and the “Corn plant response rating” value (corn; [17]) was 0. For the same compound, the “Corn plant response rating” value (corn; [18]) was 20, the “Surinam Grass plant response rating (0 to 100 scale)” value (Surinam grass; [15]) was 0 and the “Plant response rating, Surinam Grass” value (Surinam grass; [16]) was 0. The “Surinam Grass plant response rating” value (Surinam grass; [17]) was 0, the “Surinam Grass plant response rating” value (Surinam grass; [18]) was 0 and the “Blackgrass plant response rating” value (blackgrass; [17]) was 10. The “Blackgrass plant response rating” value (blackgrass; [18]) was 20, the “Velvetleaf plant response rating” value (velvetleaf [11]; [19]) was 10 and the “Plant response rating, Velvetleaf” value (velvetleaf [11]; [20]) was 40. For the same compound, the “Velvetleaf plant response rating” value (velvetleaf [11]; [21]) was 5, the “Velvetleaf plant response rating” value (velvetleaf [11]; [22]) was 0 and the “Crabgrass, Large plant response rating (0 to 100 scale)” value (large crabgrass [12]; [15]) was 0. The “Plant response rating, Crabgrass, Large” value (large crabgrass [12]; [16]) was 0, the “Crabgrass, Large plant response rating” value (large crabgrass [12]; [17]) was 0 and the “Crabgrass, Large plant response rating” value (large crabgrass [12]; [18]) was 0. The “Barnyardgrass plant response rating” value (barnyardgrass [13]) was 0, the “Oat, Wild plant response rating” value (wild oat; [17]) was 20 and the “Oat, Wild plant response rating” value (wild oat; [18]) was 30. For the same compound, the “Morningglory plant response rating (0 to 100 scale)” value (morningglory [14]; [15]) was 0, the “Plant response rating, Morningglory” value (morningglory [14]; [16]) was 0 and the “Morningglory plant response rating” value (morningglory [14]; [17]) was 0. The “Morningglory plant response rating” value (morningglory [14]; [18]) was 0.
